Compound: CCCC(O)c1c(CC)nc2c(-c3ccc(Cl)cc3Cl)nccn12 (stereo not shown) [Example 7, 8-(2,4-dichlorophenyl)-2-ethyl-3-(1-hydroxybutyl)imidazo[1,2-a]pyrazine]
- melting point: 159 to 160 °C
